These results are taken from patent US20190100790A1, “DETERMINATION OF NOTCH PATHWAY ACTIVITY USING UNIQUE COMBINATION OF TARGET GENES” (KONINKLIJKE PHILIPS N.V., priority 2017, published 2019).

The test system of this assay is Notch cellular signaling pathway. In words: Notch pathway activity predicted by Bayesian network model from target gene expression, MOLT4 cell line (data set GSE6495). In kind it is cell-based, human. The settings on record: MOLT4 cells, 48 hours, 5 μM. An excerpt:
Herein, an exemplary Bayesian network model as shown in FIG. 2 was used to model the transcriptional program of the Notch cellular signaling pathway in a simple manner. The model consists of three types of nodes: (a) a transcription factor (TF) element (with states “absent” and “present”) in a first layer 1; (b) target genes TG1, TG2, TGn (with states “down” and “up”) in a second layer 2, and; (c) measurement nodes linked to the expression levels of the target genes in a third layer 3. These can be microarray probesets PS1,1, PS1,2, PS1,3, PS2,1, PSn,1, PSn,m (with states “low” and “high”), as preferably used herein, but could also be other gene expression measurements such as RNAseq or RT-qPCR.
A suitable implementation of the mathematical model, herein, the exemplary Bayesian network model, is based on microarray data. The model describes (i) how the expression levels of the target genes depend on the activation of the TF element, and (ii) how probeset intensities, in turn, depend on the expression levels of the respective target genes. For the latter, probeset intensities may be taken from fRMA pre-processed Affymetrix HG-U133Plus2.0 microarrays, which are widely available from the Gene Expression Omnibus (GEO, www.ncbi.nlm.nih.gov/geo) and ArrayExpress (www.ebi.ac.uk/arrayexpress). […]

As to `C[C@H](NC(=O)Cc1cc(F)cc(F)c1)C(=O)N[C@H](C(=O)OC(C)(C)C)c1ccccc1` [DAPT], the “Notch cellular signaling pathway activity (odds that the TF element is present)” value (18 target genes shortlist model, vs untreated (FIG. 11)) is “decrease in Notch activity” and the “Notch cellular signaling pathway activity (odds that the TF element is present)” value (26 target genes list model, vs untreated (FIG. 12)) was “decrease in Notch activity”.
